One compound from ChEMBL document CHEMBL2346639, “A new dehydroabietic acid-based arylamine fluorescent probe: Synthesis, structure analysis and in vitro biodiagnose function” (Bioorg Med Chem Lett, 2013) can be followed below.

What is called solubility is the dissolved amount per volume that the medium holds. A lower solubility goes with a poorly soluble substance.

The nature of data set [1]: Photostability of the compound in DMSO at 1 x 10^-6 M measured after UV-irradiation by fluorescence spectra analysis. To be noted: 1 µM. It counts as physicochemical.
Data set [2] in a line: Cytotoxicity against human SMMC7721 cells assessed as cell survival at 1 uM after 24 hrs by MTT assay relative to control. It counts as cell-based. To be noted: SMMC-7721 cells, read-out: Survival. Background: Tetrazolium assays rely on reduction of a dye to a coloured formazan, in cell work by metabolically active cells.
A short description of data set [3]: Cytotoxicity against human A549 cells assessed as cell survival at 1 uM after 24 hrs by MTT assay relative to control. It is filed as cell-based. To be noted: read-out: Survival.
The nature of data set [4]: Photostability of the compound in water at 10 uM measured 30 mins after UV-irradiation by fluorescence spectra analysis. To be noted: buffer, 0.5 h. It is filed as physicochemical.
Data set [5] is described as follows: Photostability of the compound in methanol at 1 x 10^-6 M measured after UV-irradiation by fluorescence spectra analysis. It counts as physicochemical. To be noted: 1 µM.
Data set [6] in a line: Cellular uptake in human SMMC7721 cells cytoplasm after 4 hrs by fluorescence microscopic analysis. It is filed as ADME, cell-based. To be noted: smmc-7721, 4 h.
Data set [7] concerns A549. Description: Cellular uptake in human A549 cells after 4 hrs by fluorescence microscopic analysis. To be noted: a549, 4 h. It counts as ADME, cell-based.
A short description of data set [8]: Cellular uptake in human SGC7901 cells cytoplasm after 4 hrs by fluorescence microscopic analysis. It is filed as ADME, cell-based. To be noted: sgc-7901, 4 h.
A short description of data set [9]: Cellular uptake in human HeLa cells cytoplasm after 4 hrs by fluorescence microscopic analysis. It counts as ADME, cell-based.
Data set [10] in a line: Solubility of the compound in water. It counts as physicochemical.
Another data set has as its system SGC-7901. Description: Cellular uptake in human SGC7901 cells after 4 hrs by fluorescence microscopic analysis. To be noted: sgc-7901, 4 h. It is filed as ADME, cell-based.
For the next data set, the system named is HeLa. Briefly: Cellular uptake in human HeLa cells after 4 hrs by fluorescence microscopic analysis. It counts as ADME, cell-based.
A short description of data set [11]: Photostability of the compound in water at 1 x 10^-6 M measured after UV-irradiation by fluorescence spectra analysis. It is filed as physicochemical. To be noted: buffer, 1 µM.
For another data set, the system named is SMMC-7721. Description: Cellular uptake in human SMMC7721 cells after 4 hrs by fluorescence microscopic analysis. It counts as ADME, cell-based. To be noted: smmc-7721, 4 h.
The nature of data set [12]: Cytotoxicity against human SGC7901 cells assessed as cell survival at 1 uM after 24 hrs by MTT assay relative to control. It counts as cell-based. To be noted: SGC-7901 cells, read-out: Survival.
Data set [13] can be described thus: Cytotoxicity against human HeLa cells assessed as cell survival at 1 uM after 24 hrs by MTT assay relative to control. To be noted: read-out: Survival. It is filed as cell-based.
The nature of data set [14]: Photostability of the compound in dichloromethane at 1 x 10^-6 M measured after UV-irradiation by fluorescence spectra analysis. To be noted: 1 µM. It is filed as physicochemical.
The subject of data set [15] is A549. Description: Cytotoxicity against human A549 cells assessed as effect on cell survival at 5 to 25 uM after 24 hrs by MTT assay. To be noted: a549, 24 h. It is filed as cell-based.
Data set [16] in a line: Cellular uptake in human A549 cells cytoplasm after 4 hrs by fluorescence microscopic analysis. It is filed as ADME, cell-based. To be noted: a549, 4 h.

As to `COC(=O)[C@]1(C)CCC[C@]2(C)c3ccc(Nc4cccc5ccccc45)cc3CC[C@@H]12`, the Stability result was “Unstable” in data set [1]; “Stable” in data set [4]; “Unstable” in data set [5]; “Stable” in data set [11]; “Unstable” in data set [14]. Moreover, the viability at 24 h, 1 µM in data set [2] worked out at 96%; in data set [3] it was 93.1%; in [12] it was 94.5%; in [13], 97.3%. In addition, the Drug uptake result (in data set [6]; with A549 [7]; in data set [8]; in data set [9]; with SGC-7901; in the data set on HeLa) was “Active” throughout. Besides, the Drug uptake entry (in the data set with SMMC-7721; in data set [16]) was “Active” in each case. The same compound displayed a solubility in [10] greater than 15 µM. Also, the Activity result in the data set with A549 [15] is reported as “Non-toxic”.
